According to article PMC8844822, “SARM1 is a multi-functional NAD(P)ase with prominent base exchange activity, all regulated bymultiple physiologically relevant NAD metabolites” (iScience, 2022):

Experiments:
hSARM1 SAM-TIR = target: T1, hSARM1 SAM-TIR (Homo sapiens, UniProt Q6SZW1); test: Base exchange reactions at neutral pH (HPLC); format: biochemical
T1 construct: made in house
T1 sequence (Q6SZW1 409-724): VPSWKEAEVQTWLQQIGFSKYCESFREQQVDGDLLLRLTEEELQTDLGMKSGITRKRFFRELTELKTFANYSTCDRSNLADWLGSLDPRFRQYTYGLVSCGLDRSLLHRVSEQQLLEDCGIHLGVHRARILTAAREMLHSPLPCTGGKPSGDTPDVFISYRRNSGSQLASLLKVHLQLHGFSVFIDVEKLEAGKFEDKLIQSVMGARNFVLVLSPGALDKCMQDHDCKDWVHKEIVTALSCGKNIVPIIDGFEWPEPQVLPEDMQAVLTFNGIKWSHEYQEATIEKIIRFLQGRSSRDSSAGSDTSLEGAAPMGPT
Description: (§1) Multiple time stops from individual assays as above were analyzed for linearity, then extents of hydrolysis (white bars), cyclization (red bars), or base exchange (black bars) were calculated from each corresponding product as shown in Figure 1B and STAR methods. […] See also Figures S3–S5, and Table S1
(§2) Rates were calculated as follows.

DRG neurons = test: Base exchange products in DRG explant cultures (metabolite extraction, HPLC); format: cell-based, mouse; settings: 4 h; for SARM1 dependence of base exchange product formation: wild-type vs Sarm1^−/− DRG cultures
Description: Dorsal Root Ganglia (DRG) were dissected from C57BL/6J (RRID IMSR_JAX:000664) or Sarm1^-/- (RRID MGI_3765957) E13.5-E14.5 mouse embryos. Explants were cultured in 35 mm tissue culture dishes pre-coated with poly-L-lysine (20 μg/ml for 1 h; Merck) and laminin (20 μg/ml for 1 h; Merck) in Dulbecco's Modified Eagle's Medium (DMEM, Gibco) with 1 % penicillin/streptomycin (Thermo Fisher Scientific), 33 ng/ml 2.5S NGF (Thermo Fisher Scientific) and 2% B27 (Gibco). 4 μM aphidicolin (Merck) was used to reduce proliferation and viability of small numbers of non-neuronal cells ([Loreto and Gilley, 2020]).
Wild-type and Sarm1^−/− DRG neurons were treated at DIV7 with 3-acetylpyridine (AcPyr) or vehicle (H2O), or with vacor or vehicle (H2O with 4% 1 N HCl). Proper drug concentrations and times of collection were determined first by dedicated experiments (see Figure 5A). At the indicated time-point, wild-type and Sarm1^−/− DRG whole explant cultures (typically 30-60 ganglia per condition) were collected, washed in ice-cold PBS and rapidly frozen in dry ice, and stored at −80°C until processed. Next extraction was carried out as reported by grinding in liquid N2, resuspending in HClO4 containing cAMP as internal standard for recovery calculations, sonicating, and neutralizing with K2CO3 ([Mori et al., 2014]). Next HPLC analyses to detect and measure the base exchange formed products, i.e. AcPyrAD or the vacorylated compound VAD, were carried out as described above in the paragraph “NADase assays”. In all samples, recovery yields from spiked cAMP were at least 96%. Furthermore, pellets after extraction of soluble nucleotides were treated as reported ([Mori et al., 2014]) to get reference protein contents to normalize the nucleotide levels. Protein concentrations were determined using the Bradford Reagent (Merck).

[1] = target: T2, Aplysia californica ADP ribosyl cyclase (Aplysia californica, UniProt P29241); test: Base exchange reactions at neutral pH (HPLC); format: biochemical; set-up: purchased Merck A8950
T2 sequence (P29241 25-282): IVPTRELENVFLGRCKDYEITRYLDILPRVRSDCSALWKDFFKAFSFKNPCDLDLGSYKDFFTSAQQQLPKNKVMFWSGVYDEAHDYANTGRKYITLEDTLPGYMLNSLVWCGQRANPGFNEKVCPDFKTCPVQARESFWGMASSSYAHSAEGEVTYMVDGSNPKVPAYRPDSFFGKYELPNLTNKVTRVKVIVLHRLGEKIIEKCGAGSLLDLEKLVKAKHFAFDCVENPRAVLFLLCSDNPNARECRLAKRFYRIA
Description: as §1, §2

[2] = NAD […] alone or + AcPyr 2 mM / Vacor 0.5 mM / Na 2 mM
[3] = NADP […] alone or + AcPyr 2 mM / Vacor 0.5 mM / Na 2 mM

Row | Structure (SMILES) | rate (hSARM1 SAM-TIR; [2]) | rate (hSARM1 SAM-TIR; [3]) | VAD formed (DRG neurons; wild-type DRGs, vacor 50 μM) | SARM1 dependence of base exchange product formation (DRG neurons) | rate [1, 2] | rate [1, 3] | AcPyrAD formed (DRG neurons; wild-type DRGs, AcPyr 250 μM)
1 | O=C(NCc1cccnc1)Nc1ccc([N+](=O)[O-])cc1 [Vacor, 1-(4-nitrophenyl)-3-(pyridin-3-ylmethyl)urea] | 284.8 ±51.1 mU/mg | 266.0 ±54.1 mU/mg | ~0.14 nmol/mg | found only in wild-type DRGs | 12748 ±2593 mU/mg | 8132 ±2201 mU/mg | 
2 | CC(=O)c1cccnc1 [AcPyr, 3-acetylpyridine] | 427.3 ±76.5 mU/mg | 261.7 ±60.9 mU/mg |  | not in treated Sarm1^−/− cultures | 13996 ±624 mU/mg | 15779 ±5215 mU/mg | 0.446 ± 0.021 nmol per mg of protein
